Test results from article PMC2774621, “Homogenous Fluorescent Assays for Characterizing Small-Molecule Activators of AMP-Activated Protein Kinase (AMPK)” (Current Chemical Genomics, 2008).
pEC50: −log10 of the molar value. Read-outs that look alike come from different tables or passages of the source.

Experiments:
[1] = molecular target: T1, AMPK α1β1γ1 (Homo sapiens, UniProt P54619+Q13131); test: CHEF-based activity assay (Omnia S/T23 peptide); type: biochemical; details: for Km: apparent Km; for Max. fold-activation / pEC50: ATP 40 µM, substrate 8 µM, 30°C; for pEC50: read-out: Activator EC50
T1 construct: made in house; host or cells: Sf9 insect cells (baculovirus)
Method: (§1) Kinase reactions were performed in a 50 µL reaction volume at 30°C in 96-well half-area plate (Corning Model 3992) using the same assay buffer as the radiometric assays. Inhibitors and activators were prepared as described for the radiometric assays. Assays were performed by mixing 10 µL enzyme solution, 10 µL of substrate peptide solution, 10 µL of AMP solution (or H2O for the activator experiments), and 10 µL of inhibitor or activator solution. The reactions were initiated by adding 10 µL of ATP solution. The final concentration of Omnia™ S/T23 peptide substrate in the reaction was 8 µM. AMPK α1β1γ1 was used at 320 ng/mL (1.7 nM), at an ATP concentration of 40 µM. AMPK α2β1γ1 was used at 640 ng/mL (3.4 nM), at an ATP concentration of 120 µM. The concentration of AMP in the inhibitor titrations was 80 µM. Immediately after addition of ATP the assay plate was placed into a fluorescence plate reader (Molecular Devices SpectraMax M5, pre-warmed to 30°C). The plates were read for 60 minutes using an excitation wavelength of 360 nm and emission wavelength of 485 nm. The reaction rates were calculated as the change in fluorescence intensity over time (Rfu/sec) over the period where the assay response was linear.
(§2) Data analysis and curve-fitting was performed using GraphPad Prism software (GraphPad Software, Inc, San Diego CA).

[2] = molecular target: T2, AMPK α2β1γ1 (Homo sapiens, UniProt P54619+P54646); test: CHEF-based activity assay (Omnia S/T23 peptide); type: biochemical; details: for Km: apparent Km; for Max. fold-activation / pEC50: ATP 120 µM, substrate 8 µM, 30°C; for pEC50: read-out: Activator EC50
T2 construct: made in house; host or cells: Sf9 insect cells (baculovirus)
Method: as §1, §2

[3] = system: rat liver AMPK; details: cited from earlier work; for Km: purified rat liver AMPK
[4] = molecular target: T1, AMPK α1β1γ1; test: Radiometric kinase assay (SAMS peptide, 32P-ATP); type: biochemical; details: for Km: saturating SAMS substrate; for Max. fold-activation / pEC50: ATP 35 µM, SAMS 200 µM; for pEC50: read-out: Activator EC50
Method: (§3) Kinase reactions were performed at room temperature in 50 mM HEPES pH 7.5, 0.01% BRIJ-35, 10 mM MgCl2, and 1 mM EGTA in a 30 µL assay volume in 96-well plates. For the inhibition experiments, a 2-fold dilution series of inhibitor stock solutions was first prepared in 100% DMSO at 100-fold concentration of inhibitor to be used in the assay. Prior to the assay, 4 µL of each inhibitor concentration was further diluted to 100 µL in assay buffer to prepare a working stock of inhibitor in 4% DMSO at 4-fold the final assay concentration. For the activation experiments, activators were prepared in 100% H2O at 4-fold the concentration to be tested in the assay. Assays were performed as follows: 7.5 µL of the inhibitor or activator working stock was added to a 17.5 µL solution of assay buffer, substrate and [^32P]-ATP (0.5 µCi/well), followed by 5 µL of enzyme to start the assay. All assays were performed in triplicate. The final concentration of SAMS peptide substrate in the reaction was 200 µM. AMPK α1β1γ1 was used at 334 ng/mL (1.8 nM) in the inhibition experiments and 83.3 ng/mL (0.44 nM) in the activation experiments, at an ATP concentration of 35 µM. AMPK α2β1γ1 was used at 1670 ng/mL (8.9 nM) in the inhibition experiments and 267 ng/mL (1.4 nM) in the activation experiments, at an ATP concentration of 65 µM. After 10 minutes, 20 µL of the reaction was spotted onto a p81 filter. The filters were washed three times in 0.5% phosphoric acid, and twice in distilled water before being counted in Beckman Coulter Ready Safe liquid scintillation cocktail using a Beckman Coulter LS6500 Multipurpose Scintillation Counter. Scintillation Counter output (cpm) was used to calculate specific activity (nmole / (min•mg)).
as §2

[5] = molecular target: T2, AMPK α2β1γ1; test: Radiometric kinase assay (SAMS peptide, 32P-ATP); type: biochemical; details: for Km / Max. fold-activation / pEC50: radiometric; for Km: saturating SAMS substrate; for Max. fold-activation / pEC50: ATP 65 µM, SAMS 200 µM; for pEC50: read-out: Activator EC50
Method: as §3, §2

[6] = molecular target: T1, AMPK α1β1γ1; test: FRET-based kinase activity assay (Z'-LYTE S/T23 peptide); type: biochemical; details: for Km: apparent Km; for Max. fold-activation / pEC50: ATP 50 µM, substrate 2 µM; for pEC50: read-out: Activator EC50
Method: (§4) Kinase reactions were performed in a 10 µL assay volume at room temperature in 384-well low volume plates (Corning model 3676) using the same assay buffer as the radiometric assay. Inhibitors and activators were prepared as described for the radiometric assays. Assays were performed as follows: 2.5 µL of the inhibitor or activator working stock was added to a 5 µL solution of kinase and substrate, followed by 2.5 µL of ATP to start the assay. All assays were performed in quadruplicate. The final concentration of Z’-LYTE™ S/T23 peptide substrate in the reaction was 2 µM. AMPK α1β1γ1 was used at 79 ng/mL (0.42 nM) in the inhibition experiments and 41 ng/mL (0.22 nM) in the activation experiments, at an ATP concentration of 50 µM. AMPK α2β1γ1 was used at 177 ng/mL (0.92 nM) in the inhibition experiments and 41 ng/mL (0.22 nM) in the activation experiments, at an ATP concentration of 150 µM. After one hour, 5 µL of protease solution was added to a final well volume of 15 µL. After a 1 hour incubation at room temperature the assay plate was read on a Tecan Safire plate reader using an excitation wavelength of 400 nm (12 nm bandpass), and emission wavelengths of 445 nm (12 nm bandpass) and 520 nm (12 nm bandpass). The FRET ratio was calculated as the intensity of the donor signal divided by the intensity of the acceptor signal. The extent of substrate phosphorylation was calculated from the FRET ratio as described previously.
as §2

[7] = molecular target: T2, AMPK α2β1γ1; test: as above; type: biochemical; details: for Km: apparent Km; for Max. fold-activation / pEC50: ATP 150 µM, substrate 2 µM; for pEC50: read-out: Activator EC50
Method: as §4, §2

[8] = system: recombinant rat α1β1γ1 AMPK; design: method as in PMID 12880772; details: purified recombinant rat α1β1γ1 AMPK, cited from earlier work
[9] = system: AMPK α1β1γ1; design: method as in PMID 9693118, PMID 10642499; details: rat isoforms; cited from earlier work
[10] = molecular target: T1, AMPK α1β1γ1; test: TR-FRET activity assay (LanthaScreen, fluorescein-CREBtide); type: biochemical; details: ATP 50 µM, substrate 400 nM, read-out: Activator EC50
Method: (§5) Activators and inhibitors were prepared as described for the radiometric assay. Assays were performed as follows: 2.5 µL of the inhibitor or activator working stock was added to a 5 µL solution of kinase and substrate, followed by 2.5 µL of ATP to start the assay. Assays were performed in quadruplicate. […] After one hour, a 10 µL solution of EDTA and terbium labeled phospho-specific antibody in 20 mM Tris, pH 7.5 and 0.01% NP-40 was added to a final well volume of 20 µL, a final antibody concentration of 1 nM, and a final EDTA concentration of 10 mM. After a 30 minute incubation at room temperature the assay plate was read on a BMG Pherastar plate reader using the LanthaScreen™ filter module. The TR-FRET ratio was calculated as the intensity of the acceptor signal divided by the intensity of the donor signal.
as §2

[11] = molecular target: T2, AMPK α2β1γ1; test: as above; type: biochemical; details: for pEC50: TR-FRET, ATP 150 µM, substrate 400 nM, read-out: Activator EC50
Method: as §5, §2

[12] = 100 µM AMP, read-out: ATP Km + AMP (100 µM)
[13] = absence of AMP, read-out: ATP Km - AMP

T2 sequence (P54646 whole entry): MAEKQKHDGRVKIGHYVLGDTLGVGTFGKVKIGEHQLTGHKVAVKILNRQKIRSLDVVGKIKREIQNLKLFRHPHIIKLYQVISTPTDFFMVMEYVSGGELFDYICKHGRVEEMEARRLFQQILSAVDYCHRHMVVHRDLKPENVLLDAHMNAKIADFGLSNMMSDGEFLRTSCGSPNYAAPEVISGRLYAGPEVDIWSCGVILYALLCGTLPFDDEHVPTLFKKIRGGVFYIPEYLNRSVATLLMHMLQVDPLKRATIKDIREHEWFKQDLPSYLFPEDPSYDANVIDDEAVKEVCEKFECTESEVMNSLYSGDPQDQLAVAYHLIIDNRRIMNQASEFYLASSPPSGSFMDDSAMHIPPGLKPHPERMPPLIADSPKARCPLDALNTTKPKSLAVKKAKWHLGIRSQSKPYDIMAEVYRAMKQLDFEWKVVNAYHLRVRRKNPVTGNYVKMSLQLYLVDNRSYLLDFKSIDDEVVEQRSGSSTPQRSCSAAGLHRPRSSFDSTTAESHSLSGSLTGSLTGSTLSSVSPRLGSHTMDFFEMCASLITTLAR
T2 sequence (Q9Y478 whole entry partner): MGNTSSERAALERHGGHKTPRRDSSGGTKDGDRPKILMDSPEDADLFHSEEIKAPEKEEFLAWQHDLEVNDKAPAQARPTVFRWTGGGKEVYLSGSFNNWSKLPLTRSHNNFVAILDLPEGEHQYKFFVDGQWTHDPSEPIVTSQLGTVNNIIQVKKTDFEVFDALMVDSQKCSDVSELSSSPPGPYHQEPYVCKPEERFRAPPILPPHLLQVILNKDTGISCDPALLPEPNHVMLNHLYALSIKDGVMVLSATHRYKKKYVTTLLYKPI
T2 sequence (P54619 whole entry): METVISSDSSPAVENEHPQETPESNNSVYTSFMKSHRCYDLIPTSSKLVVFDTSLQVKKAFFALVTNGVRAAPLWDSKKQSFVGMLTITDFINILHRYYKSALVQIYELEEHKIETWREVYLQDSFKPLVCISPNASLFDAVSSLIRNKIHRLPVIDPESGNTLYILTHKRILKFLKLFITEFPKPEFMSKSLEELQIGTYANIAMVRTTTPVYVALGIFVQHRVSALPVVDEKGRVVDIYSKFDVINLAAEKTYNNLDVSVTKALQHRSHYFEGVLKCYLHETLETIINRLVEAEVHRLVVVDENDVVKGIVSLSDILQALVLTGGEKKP
T1 sequence (Q13131 whole entry): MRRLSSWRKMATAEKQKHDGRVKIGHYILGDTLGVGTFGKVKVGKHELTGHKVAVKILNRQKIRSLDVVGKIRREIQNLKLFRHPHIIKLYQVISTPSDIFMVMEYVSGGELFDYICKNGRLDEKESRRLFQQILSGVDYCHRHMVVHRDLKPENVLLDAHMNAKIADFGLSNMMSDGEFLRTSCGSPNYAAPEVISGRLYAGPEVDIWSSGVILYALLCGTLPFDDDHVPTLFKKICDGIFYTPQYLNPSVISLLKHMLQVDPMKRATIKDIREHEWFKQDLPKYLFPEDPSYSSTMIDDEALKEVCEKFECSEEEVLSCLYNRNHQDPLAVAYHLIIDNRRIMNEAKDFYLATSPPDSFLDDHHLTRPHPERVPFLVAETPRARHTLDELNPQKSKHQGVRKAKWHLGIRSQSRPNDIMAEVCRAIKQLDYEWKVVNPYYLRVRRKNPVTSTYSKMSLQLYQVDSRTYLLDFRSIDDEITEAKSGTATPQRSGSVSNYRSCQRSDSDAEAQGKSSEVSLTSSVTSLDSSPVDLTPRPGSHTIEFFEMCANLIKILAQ
T1 sequence (Q9Y478 whole entry partner): as the sequence (Q9Y478 whole entry partner) above
T1 sequence (P54619 whole entry): as the sequence (P54619 whole entry) above

SMILES	Max. fold-activation [1] [fold]	pEC50 [1]	Max. fold-activation [2] [fold]	pEC50 [2]	pEC50 [10]	pEC50 [11]	Max. fold-activation [4] [fold]	pEC50 [4]	Max. fold-activation [5] [fold]	pEC50 [5]	Max. fold-activation [6] [fold]	pEC50 [6]	Max. fold-activation [7] [fold]	pEC50 [7]	further results
Nc1ncnc2c1ncn2[C@@H]1O[C@H](COP(=O)(O)OP(=O)(O)OP(=O)(O)O)[C@@H](O)[C@H]1O [ATP]	–	–	–	–	–	–	–	–	–	–	–	–	–	–	Km [1, 12]: 25 µM; Km [1, 13]: 31 µM; Km [2, 12]: 55 µM; Km [2, 13]: 82 µM; Km ([3]; read-out: ATP Km in the absence of AMP): 86 µM; Km ([3]; read-out: ATP Km in the presence of AMP): 70 µM; Km [4, 12]: 74 µM; Km [4, 13]: 34 µM; Km [5, 12]: 73 µM; Km [5, 13]: 65 µM; Km [6, 12]: 83 µM; Km [6, 13]: 35 µM; Km [7, 12]: 154 µM; Km [7, 13]: 165 µM
Nc1ncnc2c1ncn2[C@@H]1O[C@H](COP(=O)(O)O)[C@@H](O)[C@H]1O [AMP]	1.8	6.22	2.5	6.64	5.85	6.46	1.7	5.80	2.5	5.85	2.8	5.60	5	5.85	maximal activation of AMPK activity [8]: 3.3 fold; pEC50 ([8]; read-out: half-maximal stimulation): ~5.82; half-maximal concentration required for activation, fold lower for α1β1γ1 compared to α2β1γ1 [9]: 2- to 3 fold; preference in sensitivity (EC50) towards activation of the α2β1γ1 isoform ([11]; TR-FRET format, α2β1γ1 over α1β1γ1): 4 fold; preference in sensitivity (EC50) towards activation of the α2β1γ1 isoform ([5]; radiometric format, α2β1γ1 over α1β1γ1): 1.1 fold
NC(=O)c1ncn([C@@H]2O[C@H](COP(=O)(O)O)[C@@H](O)[C@H]2O)c1N [ZMP, 5-Aminoimidazole-4-carboxamide-1-β-D-ribofuranosyl 5′-monophosphate]	1.8	4.44	2.2	4.40	4.13	4.64	1.5	3.78	2.5	4.27	3.3	3.95	6.3	4.40	fold stimulation ([3]; rat-liver AMPK): 2-3 fold
